Laboratory results: BindingDB's records for doi:10.1016/j.bmcl.2009.01.089 (Gsk, 2009)

Biological target: T1, Gag-Pol polyprotein [1148-1435] (Human immunodeficiency virus 1, UniProt P04585)
T1 construct: 1148-1435
Test: HIV Integrase Strand Transfer Scintillation Proximity Assay (SPA)
Protocol: Purified recombinant integrase was first combined in a complex with biotinylated donor DNA- streptavidin-coated SPA beads. The complex was preincubated with the test compound, and strand transfer was initiated with a radiolabeled target DNA substrate. After incubation, the incorporated radioactivity was read in a Wallac MicroBeta scintillation plate reader using a counting protocol that corrected for optical cross talk between wells.

Which IC50 does the source give for NC(=O)c1nc(-c2nnc(Cc3ccc(F)cc3)o2)c(O)c2ncccc12 [7-{5-[(4-fluorophenyl)methyl]-1,3,4-oxadiazol-2-yl}-8-hydroxy-1,6-naphthyridine-5-carboxamide] here?
The IC50 was 100 nM.

For Cc1ccc(S(=O)(=O)Nc2nc(-c3nnc(Cc4ccc(F)cc4)o3)c(O)c3ncccc23)cc1 [N-(7-{5-[(4-fluorophenyl)methyl]-1,3,4-oxadiazol-2-yl}-8-hydroxy-1,6-naphthyridin-5-yl)-4-methylbenzene-1-sulfonamide], which IC50 (pH 7.2, 37 °C) is on record?
The IC50 was 42 nM.
